Earlier results as cited in PMC7992119 (Structure (London, England : 1993), 2019).
One block for each substance: values may come before it. Where no end group is shown, it is not given here. The star is where a group is joined. Octanoyl = CCCCCCCC(=O)*

Key:
GHSR [1] = settings: ref Bednarek et al., 2000
ET-B = settings: mutation of known crystal contacts; ref Shihoya et al., 2016
GHSR [2] = tested on: GHSR

Substance: des-acyl ghrelin
activity at GHSR of des-acyl versus lipidated form (GHSR [1]): only the lipidated form is active at GHSR

maximal decrease of binding (ET-B): ≤ 10 fold
Substance: endothelin-1

Substance: ghrelin: 28-amino acid peptide with n-octanoylation at its Ser^3 residue (GSS(Octanoyl)FLSPEHQRVQQRKESKKPPAKLQPR; UniProt Q9UBU3 24-51, looked up)
affinity of the C terminus for the receptor (GHSR [2]; C terminus of ghrelin (beyond residue 17), ref Bednarek et al., 2000): the C terminus has no affinity for the receptor and does not enhance ligand binding over truncated variants | affinity to GHSR versus the membrane (GHSR [2]; qualitative statement, no reference given): much higher than to the membrane
